The text below walks through data of US20260366053A1, “SYNTHESIS OF COTYLENIN AND ANALOGS THEREOF FOR THE DEVELOPMENT OF SELECTIVE MODULATORS OF 14-3-3 PROTEIN-PROTEIN INTERACTION” (priority 2022, published 2026).

Entries after “also recorded” stand apart in the source; their conditions may differ.

One series has as its system 14-3-3 PPI. The conditions noted are these: cited from earlier work.
Series [1] concerns 14-3-3 proteins and their clients. As to conditions: cited from earlier work.
Series [2] deals with human myeloid leukemia cells. As to conditions: listed as cotylenol; cited from earlier work.
For series [3], the system named is 14-3-3sigma and the C-terminal of TASK-3. As to conditions: structural; listed as cotylenol; cited from earlier work.
Series [4] addresses P450BM3 variant MERO1 L75A (Priestia megaterium, UniProt P14779, A185V/A291V/A83G/E253G/F206C/F88V/H237Q/L354V/L76A/P143S/R256S/S227R/T176I/V79A). The conditions noted are these: role: substrate; cofactor Na2NADP 0.2 eq.; lysate, 22 °C, 16 h, pH 8.0.
The target in series [5] is P450BM3 variant MERO1 FT (MERO1 L181F V184T) (Priestia megaterium, UniProt P14779, A185T/A291V/A83G/E253G/F206C/F88V/H237Q/L182F/L354V/P143S/R256S/S227R/T176I/V79A). As to conditions: role: substrate; cofactor Na2NADP 0.2 eq.; lysate, 22 °C, 16 h, pH 8.0.
The next series has as its target Wild-type Bsc9 (Alternaria brassicicola, UniProt D7UTD1). Format: biochemical. As to conditions: for conversion: pH 8.5.
In a further series the target is BscD (Pseudocercospora fijiensis, UniProt M2ZB93). As to conditions: role: substrate; E. coli lysates.
The next series concerns MoBsc9. The series is classed as biochemical, Magnaporthe oryzae. As to conditions: for conversion: role: substrate, cosubstrate α-ketoglutarate, 1 mg scale, clarified lysate, 15 °C, 10 h, pH 8.5.
Another series addresses Bsc9 “VR” (Alternaria brassicicola, UniProt D7UTD1, DEL103-114/G116R/H115V). As to conditions: role: substrate.

Chain of P450BM3 variant MERO1 L75A (P14779 whole entry L76A/V79A/A83G/F88V/P143S/T176I/A185V/F206C/S227R/H237Q/E253G/R256S/A291V/L354V): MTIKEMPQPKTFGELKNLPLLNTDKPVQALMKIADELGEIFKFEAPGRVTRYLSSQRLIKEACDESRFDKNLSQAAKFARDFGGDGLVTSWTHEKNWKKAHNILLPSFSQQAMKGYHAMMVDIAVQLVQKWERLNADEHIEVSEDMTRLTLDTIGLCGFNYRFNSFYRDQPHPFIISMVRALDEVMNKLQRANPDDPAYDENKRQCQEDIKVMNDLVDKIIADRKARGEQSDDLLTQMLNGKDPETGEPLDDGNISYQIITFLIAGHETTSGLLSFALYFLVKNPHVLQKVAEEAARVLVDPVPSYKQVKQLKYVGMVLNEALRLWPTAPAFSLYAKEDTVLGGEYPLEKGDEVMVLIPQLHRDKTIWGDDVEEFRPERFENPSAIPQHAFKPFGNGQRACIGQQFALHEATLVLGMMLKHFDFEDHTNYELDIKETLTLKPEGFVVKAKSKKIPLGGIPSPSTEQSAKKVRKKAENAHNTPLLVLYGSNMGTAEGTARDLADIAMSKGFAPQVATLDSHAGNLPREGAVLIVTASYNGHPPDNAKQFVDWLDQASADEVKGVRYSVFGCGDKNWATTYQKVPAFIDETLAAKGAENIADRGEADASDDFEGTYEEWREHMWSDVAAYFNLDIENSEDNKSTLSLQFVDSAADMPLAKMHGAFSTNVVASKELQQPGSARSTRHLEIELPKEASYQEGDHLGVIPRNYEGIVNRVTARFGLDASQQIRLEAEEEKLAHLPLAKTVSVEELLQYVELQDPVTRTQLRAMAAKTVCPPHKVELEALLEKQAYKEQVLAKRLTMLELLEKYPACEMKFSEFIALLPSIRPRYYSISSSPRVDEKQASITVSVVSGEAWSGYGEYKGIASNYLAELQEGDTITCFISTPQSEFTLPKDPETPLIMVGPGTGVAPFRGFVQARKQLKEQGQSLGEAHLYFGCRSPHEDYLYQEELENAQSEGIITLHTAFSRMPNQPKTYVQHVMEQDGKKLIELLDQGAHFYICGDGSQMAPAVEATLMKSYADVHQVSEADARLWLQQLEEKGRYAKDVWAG
Chain of P450BM3 variant MERO1 FT (MERO1 L181F V184T) (P14779 whole entry V79A/A83G/F88V/P143S/T176I/L182F/A185T/F206C/S227R/H237Q/E253G/R256S/A291V/L354V): as the sequence (P14779 whole entry L76A/V79A/A83G/F88V/P143S/T176I/A185V/F206C/S227R/H237Q/E253G/R256S/A291V/L354V) above, with A76L, L182F, V185T counted along it
Source text for BscD: The biocatalytic use of BscD and Bsc9 was investigated for the oxidation of 20.

On to `C=CC(C)(C)OC[C@H]1O[C@H](O[C@@H]2C3=C([C@H](C)COC(C)=O)C[C@H](O)[C@]3(C)/C=C3/[C@@H](COC)CC[C@H]3[C@@H](C)[C@H]2O)[C@H](O)[C@@H](OC(C)=O)[C@@H]1O` [Compound 2], for which the phytotoxicity result in the series with 14-3-3 PPI is listed as “phytotoxins that target the 14-3-3 PPI”. Besides, in series [1], the molecular glue activity entry is “capable of acting as molecular glues”.
For `COC[C@@]1(O)CC[C@@H]2/C1=C\[C@@]1(C)CCC(C(C)C)=C1[C@@H](O)[C@H](O)[C@@H]2C` [Compound 3], in series [2], the cytotoxicity result was “cytotoxic toward human myeloid leukemia cells; also recorded: moderate cytotoxicity on human myeloid leukemia cells”. The ternary complex formation result in series [3] was “form a ternary complex with 14-3-3sigma and the C-terminal of TASK-3; also recorded: a crystal structure of cotylenol in complex with 14-3-3s and a synthetic C-terminal hexapeptide of TASK-3 has also been solved”.
In the case of `COC[C@@]1(O)CC[C@@H]2/C1=C\[C@@]1(C)CCC(C(C)C)=C1C[C@H](O)[C@@H]2C` [Compound 4], in [4], the “regioselectivity of hydroxylation at C13” value is “without any observable regioisomers”.
Take `COCC1=C2C[C@@]3(C)CCC(C(C)C)=C3CC(=O)[C@H](C)[C@@H]2CC1` [Compound 8]: in [5], the regioselectivity of oxidation result is on record as “primarily at C4”.
For the molecule `COCC1=C2C[C@@]3(C)CCC(C(C)C)=C3[C@@H](O)C(=O)[C@H](C)[C@@H]2CC1` [Compound 20], the “conversion (in words)” value on Wild-type Bsc9 is “moderate conversion”. In addition, the conversion amounted to 43% at Wild-type Bsc9 and 100% with MoBsc9. Moreover, the “reaction (in words)” value on BscD and at Bsc9 “VR” was “no reaction” each time.
Consider `COC[C@@]1(O)CC[C@@H]2/C1=C\[C@@]1(C)CCC(C(C)C)=C1[C@@H](O)C(=O)[C@@H]2C` [Compound 21], for which, in the series with MoBsc9 (role: product, relative to Bsc9), the “improvement in assay yield of 21” value is on record as “ca. two-fold”.
For the molecule `CC(C)C1=C2[C@@H](O)C(=O)[C@H](C)[C@@H]3CCC(=O)/C3=C/[C@@]2(C)CC1` [Compound 22], on Wild-type Bsc9, the “conversion (in words)” value is on record as “no further conversion”.
For the molecule `COCC1=C2C[C@@]3(C)CCC(C(C)C)=C3C[C@H](O)[C@H](C)[C@@H]2CC1` [Compound 23], on Wild-type Bsc9, the “selectivity (percent ratio of the desired product:total products)” value was 43%. The conversion on Wild-type Bsc9 is 37%; in the series on MoBsc9 it was 30%.
